Laboratory results: patent publication US20040192771A1, “Ether compounds and compositions for cholesterol management and related uses” (priority 2001, published 2004)
pIC50: −log10 of the molar value. Where two headings read alike, the source gives them in different places.

Assays:
obese female Zucker rats [1] = experiment: Oral daily treatment of obese female Zucker rats for fourteen days; serum lipids and glycemic control indicators; format: in vivo; settings: Rattus norvegicus, percent change from study prebleed; for change in vivo at 100 mg/kg/day: 100 mg/kg/day oral; for change in vivo at 90 mg/kg/day: 90 mg/kg/day oral; for change in vivo at 30 mg/kg/day: 30 mg/kg/day oral; for change in vivo at 97 mg/kg/day: 97 mg/kg/day oral
Experimental: In a number of different experiments, illustrative compounds of the invention are administered daily at a dose of up to 100 mg/kg to chow fed obese female Zucker rats for fourteen days in the morning by oral gavage in 1.5% carboxymethylcellulose/0.2% Tween 20 or 20% ethanol/80% polyethylene glycol (dosing vehicles). Animals are weighed daily. Animals are allowed free access to rodent chow and water throughout the study except on days of blood sampling where food is restricted for six hours prior to blood sampling. Blood glucose is determined after the 6 hour fast in the afternoon without anesthesia from a tail vein. Serum is also prepared from pretreatment blood samples subsequently obtained from the orbital venous plexus (with O2/CO2 anesthesia) and following the fourteenth dose at sacrifice from the heart following O2/CO2 anesthesia. Serums are assayed for lipoprotein cholesterol profiles, triglycerides, total cholesterol, Non HDL cholesterol, HDL cholesterol, the ratio of HDL cholesterol to that of Non HDL cholesterol, insulin, non esterified fatty acids, and beta hydroxy butyric acid. The percent body weight gain and the ratio of liver to body weight is also determined. These are shown as absolute values or as a percent change of the pretreatment values in Table C. [drawing 479] [drawing 480]

primary rat hepatocytes = experiment: Inhibition of lipid synthesis ([1-14C]-acetate incorporation) in primary cultures of rat hepatocytes; format: cell-based; settings: Hepatocyte, total lipid synthesis, 4 hours incubation
Experimental: Compounds were tested for inhibition of lipid synthesis in primary cultures of rat hepatocytes. Male Sprague-Dawley rats were anesthetized with intraperitoneal injection of sodium pentobarbital (80 mg/kg). Rat hepatocytes were isolated essentially as described by the method of Seglen (Seglen, P. O. Hepatocyte suspensions and cultures as tools in experimental carcinogenesis. J. Toxicol. Environ. Health 1979, 5, 551-560). Hepatocytes were suspended in Dulbecco's Modified Eagles Medium containing 25 mM D-glucose, 14 mM HEPES, 5 mM L-glutamine, 5 mM leucine, 5 mM alanine, 10 mM lactate, 1 mM pyruvate, 0.2% bovine serum albumin, 17.4 mM non-essential amino acids, 20% fetal bovine serum, 100 nM insulin and 20 μg/mL gentamycin) and plated at a density of 1.5×10^5 cells/cm^2 on collagen-coated 96-well plates. Four hours after plating, media was replaced with the same media without serum. Cells were grown overnight to allow formation of monolayer cultures. Lipid synthesis incubation conditions were initially assessed to ensure the linearity of [1-^14C]-acetate incorporation into hepatocyte lipids for up to 4 hours. Hepatocyte lipid synthesis inhibitory activity was assessed during incubations in the presence of 0.25 μCi [1-^14C]-acetate/well (final radiospecific activity in assay is 1 Ci/mol) and 0, 1, 3, 10, 30, 100 or 300 μM of compounds for 4 hours. At the end of the 4-hour incubation period, medium was discarded and cells were washed twice with ice-cold phosphate buffered saline and stored frozen prior to analysis. To determine total lipid synthesis, 170 μl of MicroScint-E® and 50 μl water was added to each well to extract and partition the lipid soluble products to the upper organic phase containing the scintillant. Lipid radioactivity was assessed by scintillation spectroscopy in a Packard TopCount NXT.

obese female Zucker rats [2] = experiment: Oral daily treatment of obese female Zucker rats for fourteen days; serum lipids and glycemic control indicators; format: in vivo; settings: Rattus norvegicus, 168 h; percent change from study prebleed; week 1; 97 mg/kg/day oral; read-out: HDL-C
[3] = 168 h, week 1, read-out: Glucose
[4] = 168 h, week 1, read-out: Insulin
[5] = 168 h, week 1, read-out: Non-HDL-C
[6] = 336 h, week 2, read-out: Glucose
[7] = 336 h, week 2, read-out: Insulin
[8] = 336 h, week 2, read-out: Non-HDL-C

| Structure (SMILES) | change in vivo at 100 mg/kg/day (obese female Zucker rats [1]; [3]) | change in vivo at 100 mg/kg/day (obese female Zucker rats [1]; 168 h, week 1, read-out: HDL-C) | change in vivo at 100 mg/kg/day (obese female Zucker rats [1]; [4]) | change in vivo at 100 mg/kg/day (obese female Zucker rats [1]; [5]) | change in vivo at 100 mg/kg/day (obese female Zucker rats [1]; 168 h, week 1, read-out: TC) | change in vivo at 100 mg/kg/day (obese female Zucker rats [1]; 168 h, week 1, read-out: TG) | change in vivo at 100 mg/kg/day (obese female Zucker rats [1]; [6]) | change in vivo at 100 mg/kg/day (obese female Zucker rats [1]; 336 h, week 2, read-out: HDL-C) | change in vivo at 100 mg/kg/day (obese female Zucker rats [1]; [7]) | change in vivo at 100 mg/kg/day (obese female Zucker rats [1]; [8]) | change in vivo at 100 mg/kg/day (obese female Zucker rats [1]; 336 h, week 2, read-out: TC) | change in vivo at 100 mg/kg/day (obese female Zucker rats [1]; 336 h, week 2, read-out: TG) | pIC50 (primary rat hepatocytes) | further results |
| --- | --- | --- | --- | --- | --- | --- | --- | --- | --- | --- | --- | --- | --- | --- |
| CC(C)(CCCCOCCCCC(C)(C)CCC(=O)O)CCC(=O)O [Compound 145, 4,4,14,14-Tetramethyl-9-oxaheptadecane-1,17-dioic acid] | -1% | 13% | -34% | -50% | -3% | -80% | 16% | 39% | -45% | -30% | 21% | -73% | 4.66 |  |
| CC(C)(CO)Cc1cccc(Oc2cccc(CC(C)(C)CO)c2)c1 [Compound 136, 3-{3-[3-(3-Hydroxy-2,2-dimethylpropyl)-phenoxy]-phenyl}-2,2-dimethylpropan-1-ol] |  |  |  |  |  |  |  |  |  |  |  |  | 4.01 | change in vivo at 90 mg/kg/day (obese female Zucker rats [1]; [3]): -20%; change in vivo at 90 mg/kg/day (obese female Zucker rats [1]; 168 h, week 1, read-out: HDL-C): 22%; change in vivo at 90 mg/kg/day (obese female Zucker rats [1]; [4]): -57%; change in vivo at 90 mg/kg/day (obese female Zucker rats [1]; [5]): -12%; change in vivo at 90 mg/kg/day (obese female Zucker rats [1]; 168 h, week 1, read-out: TC): 1%; change in vivo at 90 mg/kg/day (obese female Zucker rats [1]; 168 h, week 1, read-out: TG): 13%; change in vivo at 90 mg/kg/day (obese female Zucker rats [1]; [6]): -3%; change in vivo at 90 mg/kg/day (obese female Zucker rats [1]; 336 h, week 2, read-out: HDL-C): -4%; change in vivo at 90 mg/kg/day (obese female Zucker rats [1]; [7]): -45%; change in vivo at 90 mg/kg/day (obese female Zucker rats [1]; [8]): 23%; change in vivo at 90 mg/kg/day (obese female Zucker rats [1]; 336 h, week 2, read-out: TC): 9%; change in vivo at 90 mg/kg/day (obese female Zucker rats [1]; 336 h, week 2, read-out: TG): 18% |
| CC(C)(CO)CCCCOCCCC(C)(C)CO [Compound 126, 6-(5-Hydroxy-4,4-dimethylpentyloxy)-2,2-dimethylhexan-1-ol] | 68% | 630% | 240% | -28% | 119% | -63% | 9% | 786% | 145% | -17% | 161% | -58% | 4.77 |  |
| CC(C)(CO)CCCCOCCCCC(C)(CO)c1ccccc1 (stereo not drawn) [Compound 129, 6-(6-Hydroxy-5-methyl-5-phenylhexyloxy)-2,2-dimethyl-hexan-1-ol] | 14% | 26% | 2% | -55% | -6% | -61% | 4% | 52% | 6% | -13% | 26% | -45% | 5.33 |  |
| CC(C)(CO)CCCCCOCCCCC(C)(C)CO [Compound 130, 7-(6-Hydroxy-5,5-dimethylhexyloxy)-2,2-dimethylheptan-1-ol] |  |  |  |  |  |  |  |  |  |  |  |  | 5.08 | change in vivo at 30 mg/kg/day (obese female Zucker rats [1]; [3]): 6%; change in vivo at 30 mg/kg/day (obese female Zucker rats [1]; 168 h, week 1, read-out: HDL-C): 71%; change in vivo at 30 mg/kg/day (obese female Zucker rats [1]; [4]): 25%; change in vivo at 30 mg/kg/day (obese female Zucker rats [1]; [5]): -26%; change in vivo at 30 mg/kg/day (obese female Zucker rats [1]; 168 h, week 1, read-out: TC): 41%; change in vivo at 30 mg/kg/day (obese female Zucker rats [1]; 168 h, week 1, read-out: TG): -66%; change in vivo at 30 mg/kg/day (obese female Zucker rats [1]; [6]): 6%; change in vivo at 30 mg/kg/day (obese female Zucker rats [1]; 336 h, week 2, read-out: HDL-C): 105%; change in vivo at 30 mg/kg/day (obese female Zucker rats [1]; [7]): 13%; change in vivo at 30 mg/kg/day (obese female Zucker rats [1]; [8]): 17%; change in vivo at 30 mg/kg/day (obese female Zucker rats [1]; 336 h, week 2, read-out: TC): 77%; change in vivo at 30 mg/kg/day (obese female Zucker rats [1]; 336 h, week 2, read-out: TG): -47% |
| CC(C)(CO)CCCC1CCC(CCCC(C)(C)CO)O1 (stereo not drawn) [Compound 138, 5-[5-(5-Hydroxy-4,4-dimethylpentyl)-tetrahydrofuran-2-yl]-2,2-dimethylpentan-1-ol] |  |  |  |  |  |  |  |  |  |  |  |  | 5.05 | change in vivo at 97 mg/kg/day (obese female Zucker rats [2]): 287%; change in vivo at 97 mg/kg/day (obese female Zucker rats [1]; [3]): 35%; change in vivo at 97 mg/kg/day (obese female Zucker rats [1]; [4]): 43%; change in vivo at 97 mg/kg/day (obese female Zucker rats [1]; [5]): 11%; change in vivo at 97 mg/kg/day (obese female Zucker rats [1]; 168 h, week 1, read-out: TC): 128%; change in vivo at 97 mg/kg/day (obese female Zucker rats [1]; 168 h, week 1, read-out: TG): -49%; change in vivo at 97 mg/kg/day (obese female Zucker rats [1]; [6]): 10%; change in vivo at 97 mg/kg/day (obese female Zucker rats [1]; 336 h, week 2, read-out: HDL-C): 140%; change in vivo at 97 mg/kg/day (obese female Zucker rats [1]; [7]): 69%; change in vivo at 97 mg/kg/day (obese female Zucker rats [1]; [8]): 31%; change in vivo at 97 mg/kg/day (obese female Zucker rats [1]; 336 h, week 2, read-out: TC): 74%; change in vivo at 97 mg/kg/day (obese female Zucker rats [1]; 336 h, week 2, read-out: TG): -13% |
